According to patent publication US20060177503A1, “Bambuterol and integrin inhibitor combination and treatment method” (priority 2005, published 2006):

Key:
Hydrolytic stability = format: physicochemical
Source text: The pharmaceutical dosage forms of the present invention can be prepared according to the examples set out below. […] Furthermore, both compounds are weak bases and the solubility and stability of the compounds are sensitive to counter-ions. In order to assure the stability of the product and to achieve desirable solubility of the dosage form, the choice of excipient is critical. Including an acidulating agent such as fumaric acid, adipic acid, succinic acid, tartaric acid, citric acid, lactic acid, maleic acid, etc., in the formulation, as well as eliminating soluble cations, is important to assure the solubility and stability of the product.

[1] = system: histamine induced bronchoconstriction; conditions: cited from earlier work
smooth muscle = conditions: cited from earlier work
plasma cholinesterase = plasma cholinesterase (Homo sapiens, UniProt P06276); conditions: cited from earlier work
Chain of plasma cholinesterase (P06276 29-602): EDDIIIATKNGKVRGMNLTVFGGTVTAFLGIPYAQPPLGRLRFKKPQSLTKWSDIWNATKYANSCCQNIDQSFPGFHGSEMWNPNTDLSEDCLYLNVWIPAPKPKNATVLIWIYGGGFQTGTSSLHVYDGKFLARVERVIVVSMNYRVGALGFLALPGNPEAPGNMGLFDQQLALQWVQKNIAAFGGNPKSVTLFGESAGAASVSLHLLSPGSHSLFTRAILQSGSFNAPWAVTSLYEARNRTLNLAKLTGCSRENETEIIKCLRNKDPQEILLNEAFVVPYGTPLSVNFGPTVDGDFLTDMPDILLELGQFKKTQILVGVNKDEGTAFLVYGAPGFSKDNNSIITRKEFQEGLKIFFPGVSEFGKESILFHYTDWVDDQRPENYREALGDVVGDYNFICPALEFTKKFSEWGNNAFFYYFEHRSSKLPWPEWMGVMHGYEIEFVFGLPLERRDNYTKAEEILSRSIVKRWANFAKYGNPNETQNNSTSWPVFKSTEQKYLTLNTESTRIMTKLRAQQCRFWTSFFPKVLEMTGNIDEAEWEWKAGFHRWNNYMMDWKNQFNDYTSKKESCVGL

[2] = system: mild/moderate asthmatics not treated with inhaled corticosteroids; assay: ARES study: R411 monotherapy over a 12 week treatment period; format: in vivo, human
Description: The ARES study illustrated in FIG. 3 was designed to evaluate the safety and efficacy of monotherapy R411 over a 12 week treatment period in 480 mild/moderate asthmatics not treated with inhaled corticosteroids. Patients were randomized to one of four cohorts: 50, 200, 600 mg QD R411, or placebo (n=120/group).
The ARES study evaluated the safety and efficacy of monotherapy with R411 over a 12-week treatment period in 479 mild/moderate asthmatics not treated with inhaled corticosteroids. Patients were randomized to one of four cohorts: 50, 200, 600 mg once daily R411, or placebo.

[3] = system: persistent asthmatics treated with low to medium inhaled corticosteroids; assay: MARS study: R411 added to inhaled corticosteroids, 12 week treatment period; format: in vivo, human; conditions: added to moderate dose inhaled corticosteroids, subpopulation with not well controlled asthma
Source text: As set out above, a second component in the solid pharmaceutical dosage form comprises a therapeutically effective amount of R411 (N-(2-chloro-6-methylbenzoyl)-4-[(2,6-dichlorobenzoyl)amino]-L-phenylalanine-2-(diethylamino)ethyl ester), or a pharmaceutically acceptable salt thereof. […] The MARS study illustrated in FIG. 2 was designed to evaluate the safety and efficacy of R411 over a 12 week treatment period in 350 persistent asthmatics being treated with a stable dose of low to medium inhaled corticosteroids and inhaled short acting β2-agonist. Patients were randomized to one of five cohorts: 50, 200, 600 mg once daily (QD) or 300 mg twice daily (BID) R411, or placebo (n=70/group). After a 2-week placebo run-in period and subsequent 2-week add-on period (R411 or placebo), morning inhaled corticosteroids were removed. Two weeks later, evening inhaled corticosteroids were removed, and patients remained in the treatment period for an additional 8 weeks. The primary endpoint in the study was the percentage change in FEV1 from baseline, and secondary endpoint included PEFR, asthma exacerbations, (2-agonist use, asthma control questionnaire, asthma symptom scores, nocturnal awakenings, FEF25-75 and rate of asthma treatment failures.

atopic primate = assay: Airway inflammation in the atopic primate, oral R411; format: in vivo; conditions: oral administration, FIG. 4
key inflammatory cells = assay: Migration of inflammatory cells from the blood into the lungs; conditions: in vivo
[4] = target: T1, (Homo sapiens, UniProt P13612); assay: In vitro binding to α4 integrin, activated and not activated
T1 sequence (P13612 34-1032): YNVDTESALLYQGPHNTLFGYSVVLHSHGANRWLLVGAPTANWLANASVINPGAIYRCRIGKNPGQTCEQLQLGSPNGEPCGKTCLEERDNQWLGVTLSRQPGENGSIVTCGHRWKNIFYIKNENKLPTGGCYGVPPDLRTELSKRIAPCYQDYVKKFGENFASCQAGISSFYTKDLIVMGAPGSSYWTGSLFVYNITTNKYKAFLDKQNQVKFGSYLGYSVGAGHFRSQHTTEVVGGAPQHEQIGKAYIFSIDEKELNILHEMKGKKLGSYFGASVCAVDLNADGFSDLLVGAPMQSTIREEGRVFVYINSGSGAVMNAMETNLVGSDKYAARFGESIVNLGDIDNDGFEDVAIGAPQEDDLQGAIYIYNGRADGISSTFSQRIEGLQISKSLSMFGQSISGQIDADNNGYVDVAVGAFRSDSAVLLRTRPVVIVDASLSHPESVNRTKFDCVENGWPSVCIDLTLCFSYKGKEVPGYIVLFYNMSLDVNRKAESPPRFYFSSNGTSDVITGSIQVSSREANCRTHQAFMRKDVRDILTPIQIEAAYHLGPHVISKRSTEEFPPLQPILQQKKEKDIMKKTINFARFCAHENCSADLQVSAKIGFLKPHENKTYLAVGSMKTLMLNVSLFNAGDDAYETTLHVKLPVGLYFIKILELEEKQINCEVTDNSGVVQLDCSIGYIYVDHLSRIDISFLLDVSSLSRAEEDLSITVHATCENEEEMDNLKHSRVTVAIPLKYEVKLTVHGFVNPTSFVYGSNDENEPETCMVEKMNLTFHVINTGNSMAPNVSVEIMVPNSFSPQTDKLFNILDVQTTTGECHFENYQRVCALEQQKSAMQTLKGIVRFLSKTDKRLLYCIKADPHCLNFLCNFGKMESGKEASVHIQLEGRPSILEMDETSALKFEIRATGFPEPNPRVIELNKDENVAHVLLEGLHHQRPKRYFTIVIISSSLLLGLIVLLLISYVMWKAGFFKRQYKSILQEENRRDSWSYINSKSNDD

α4/β1 = α4/β1 (Homo sapiens, UniProt P05556+P13612); assay: Inhibition of binding of α4/β1 to VCAM-1
Chain of α4/β1 (P05556 21-798, one chain of several): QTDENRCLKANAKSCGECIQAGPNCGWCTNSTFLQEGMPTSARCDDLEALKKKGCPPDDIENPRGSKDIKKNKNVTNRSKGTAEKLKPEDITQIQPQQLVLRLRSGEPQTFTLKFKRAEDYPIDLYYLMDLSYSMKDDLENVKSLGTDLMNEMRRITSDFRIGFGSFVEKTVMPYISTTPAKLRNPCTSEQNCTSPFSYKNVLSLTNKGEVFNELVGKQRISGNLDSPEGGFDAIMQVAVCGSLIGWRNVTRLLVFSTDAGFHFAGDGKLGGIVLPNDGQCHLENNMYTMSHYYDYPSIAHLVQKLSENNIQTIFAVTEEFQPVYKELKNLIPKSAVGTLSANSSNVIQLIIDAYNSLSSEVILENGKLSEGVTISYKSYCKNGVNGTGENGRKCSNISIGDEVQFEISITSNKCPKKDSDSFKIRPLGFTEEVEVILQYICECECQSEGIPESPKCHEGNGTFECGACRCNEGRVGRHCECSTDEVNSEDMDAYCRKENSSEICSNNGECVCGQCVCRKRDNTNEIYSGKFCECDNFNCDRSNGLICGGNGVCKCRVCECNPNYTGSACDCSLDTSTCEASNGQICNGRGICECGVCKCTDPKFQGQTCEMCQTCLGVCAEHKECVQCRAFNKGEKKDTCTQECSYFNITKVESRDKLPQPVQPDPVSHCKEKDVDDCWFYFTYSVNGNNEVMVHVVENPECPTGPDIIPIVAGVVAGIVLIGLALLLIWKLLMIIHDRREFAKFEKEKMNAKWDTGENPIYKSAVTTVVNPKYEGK
Source text: (§1) R411 inhibits the binding of α4/β1 to vascular cell adhesion molecule (VCAM-1) and α4/β7 to MadCAM-1 by […] is disclosed in U.S. Pat. No. 6,229,011, which disclosure is incorporated by reference herein.

α4/β7 = target: T2, α4/β7 (Homo sapiens, UniProt P13612+P26010); assay: Inhibition of binding of α4/β7 to MadCAM-1
T2 sequence (P13612 34-1032): T1 sequence (P13612 34-1032)
T2 sequence (P26010 20-798): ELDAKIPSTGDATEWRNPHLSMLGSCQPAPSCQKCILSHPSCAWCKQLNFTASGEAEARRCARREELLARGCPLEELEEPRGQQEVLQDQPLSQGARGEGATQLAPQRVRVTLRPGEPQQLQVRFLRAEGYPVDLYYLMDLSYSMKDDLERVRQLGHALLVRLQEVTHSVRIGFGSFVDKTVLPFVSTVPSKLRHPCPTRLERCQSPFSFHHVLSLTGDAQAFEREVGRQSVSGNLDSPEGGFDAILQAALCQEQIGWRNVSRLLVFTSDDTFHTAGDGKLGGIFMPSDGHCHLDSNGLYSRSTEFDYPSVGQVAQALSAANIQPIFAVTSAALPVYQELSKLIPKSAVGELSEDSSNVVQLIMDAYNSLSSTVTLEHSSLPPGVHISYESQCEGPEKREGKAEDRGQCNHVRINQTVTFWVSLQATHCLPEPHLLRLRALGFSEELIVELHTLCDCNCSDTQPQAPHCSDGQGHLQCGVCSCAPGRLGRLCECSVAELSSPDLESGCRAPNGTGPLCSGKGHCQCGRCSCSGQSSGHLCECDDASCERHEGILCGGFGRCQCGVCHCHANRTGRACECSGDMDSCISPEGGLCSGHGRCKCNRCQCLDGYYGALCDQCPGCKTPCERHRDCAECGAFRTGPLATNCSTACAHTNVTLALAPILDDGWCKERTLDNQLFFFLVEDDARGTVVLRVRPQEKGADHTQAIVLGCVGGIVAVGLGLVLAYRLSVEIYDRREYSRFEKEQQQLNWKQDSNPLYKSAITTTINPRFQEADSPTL
Source text: as §1

CN(C)C(=O)Oc1cc(OC(=O)N(C)C)cc(C(O)CNC(C)(C)C)c1 (centres unmarked) [Bambuterol, dimethylcarbamic acid 5-[2-[(1,1-dimethylethyl)amino]-1-hydroxyethyl]-1,3-phenylene ester]
hydrolytic degradation (Hydrolytic stability): susceptible to hydrolytic degradation | duration of the relaxing activity ([1]; equipotent doses, compared with terbutaline): more prolonged | protective effect against histamine induced bronchoconstriction ([1]; oral administration): sustained protective effect | smooth muscle relaxing properties (smooth muscle): did not exert any

CN(C)C(=O)Oc1cc(OC(=O)N(C)C)cc([C@H](O)CNC(C)(C)C)c1 [(+)-bambuterol]
activity as plasma cholinesterase inhibitors (plasma cholinesterase): equally active

CCN(CC)CCOC(=O)[C@H](Cc1ccc(NC(=O)c2c(Cl)cccc2Cl)cc1)NC(=O)c1c(C)cccc1Cl [R411, N-(2-Chloro-6-methylbenzoyl)-4-[(2,6-dichlorobenzoyl)amino]-L-phenylalanine-2-(diethylamino)ethyl ester]
Asthma Control Questionnaire Scores ([2]; compared to placebo): Improvement | Asthma Quality-of-Life ([2]; compared to placebo): Improvement | decrease in daytime asthma symptom score ([2]; monotherapy, 12 weeks): Statistically significant improvements | decrease in nocturnal symptom score ([2]; monotherapy, 12 weeks): Statistically significant improvements | reducing rescue albuterol use ([2]; monotherapy, 12 weeks): Statistically significant improvements | small airway flow rates as measured by FEF25-75 ([2]; monotherapy, FIG. 3): significant effect | large airway flow rates as measured by FEV1 ([3]; FIG. 1): additive effect | small airway flow rates measured by FEF25-75 ([3]; FIG. 2): additive effect | airway inflammation (atopic primate): attenuates airway inflammation | migration of key inflammatory cells from the blood into the lungs (key inflammatory cells): block the migration | binding affinity ([4]; activated α4 ligand): high affinity | dissociation ([4]; activated α4 ligand): slow dissociation | dissociation ([4]; receptor not activated): more rapid | in vitro binding affinity ([4]; receptor not activated): lower | binding of α4/β1 to VCAM-1 (α4/β1): inhibits | effectiveness against α4/β1 integrin (α4/β1): effective | binding of α4/β7 to MadCAM-1 (α4/β7): inhibits | effectiveness against α4/β7 integrin (α4/β7): effective | hydrolytic degradation (Hydrolytic stability): susceptible to hydrolytic degradation

CN(C)C(=O)Oc1cc(O)cc(C(O)CNC(C)(C)C)c1 (centres unmarked) [monocarbamate ester]
smooth muscle relaxing properties (smooth muscle): did not exert any

CN(C)C(=O)Oc1cc(OC(=O)N(C)C)cc(C(O)CNC(C)(C)C)c1 (single isomer, unassigned; (-)) [(−)-bambuterol]
activity as plasma cholinesterase inhibitors (plasma cholinesterase): equally active
